# According to US9409884B2 (Rigel Pharmaceuticals, Inc., priority 2012, dated 2016):
# Biological target: AMPK
# Assay: AMPK activation, enzyme-linked immunosorbent assay
# Format: biochemical
# Settings: Table 8, compounds of Table 1
# In short: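 Read-out: ELISA, used to detect compound-driven activation of AMPK.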
row,EC50,SMILES
1,< 100 nM,"O=C(NC1CCN(Cc2ccncc2)CC1)c1cc2cc(OC3CCN(c4ccc(OC(F)(F)F)cc4)CC3)ccc2o1 [Compound 1-78, N-(1-(pyridin-4-ylmethyl)piperidin-4-yl)-5-(1-(4-(trifluoromethoxy)phenyl)piperidin-4-yloxy)benzofuran-2-carboxamide]"
2,< 100 nM,"N#Cc1ccc(CN2CCC(NC(=O)c3cncc(OC4CCN(c5ccc(C(F)(F)F)cc5)CC4)c3)CC2)cc1 [Compound 1-17, N-(1-(4-cyanobenzyl)piperidin-4-yl)-5-(1-(4-(trifluoromethyl)phenyl)piperidin-4-yloxy)nicotinamide]"
3,< 100 nM,"N#Cc1ccc(CN2CC[C@H](NC(=O)c3ccc(OC4CCN(c5ccc(C(F)(F)F)cc5)CC4)cn3)C2)cc1 [Compound 1-31, (S)-N-(1-(4-cyanobenzyl)pyrrolidin-3-yl)-5-(1-(4-(trifluoromethyl)phenyl)piperidin-4-yloxy) picolinamide]"
4,< 100 nM,"O=C(NC1CCN(Cc2ccccc2)CC1)c1cc2cc(OC3CCN(c4ccc(OC(F)(F)F)cc4)CC3)ccc2o1 [Compound 1-80, N-(1-benzylpiperidin-4-yl)-5-(1-(4-(trifluoromethoxy)phenyl)piperidin-4-yloxy)benzofuran-2-carboxamide]"
5,100 to 500 nM,"CC(C)(C)OC(=O)N1CCC(NC(=O)c2cc3cc(OC4CCN(Cc5ccc(C#N)cc5)CC4)ccc3o2)CC1 [Compound 1-113, tert-butyl 4-(5-(1-(4-cyanobenzyl)piperidin-4-yloxy)benzofuran-2-carboxamido) piperidine-1-carboxylate]"
6,100 to 500 nM,"O=C(N[C@@H]1CCN(Cc2ccncc2)C1)c1cc2cc(OC3CCN(c4ccc(C(F)(F)F)cc4)CC3)ccc2o1 [Compound 1-122, (R)-N-(1-(pyridin-4-ylmethyl)pyrrolidin-3-yl)-5-(1-(4-(trifluoromethyl)phenyl)piperidin-4-yloxy)benzofuran-2-carboxamide]"
7,< 100 nM,"N#Cc1ccc(CN2CCC(NC(=O)c3cc4cc(OC5CCN(Cc6ccc(C(F)(F)F)cc6)CC5)ccc4o3)CC2)cc1 [Compound 1-174, N-(1-(4-cyanobenzyl)piperidin-4-yl)-5-(1-(4-(trifluoromethyl)benzyl)piperidin-4-yloxy)benzofuran-2-carboxamide]"
8,< 100 nM,"O=C(NC1CCN(Cc2cccnc2)CC1)c1ccc(OC2CCN(c3ccc(C(F)(F)F)cc3)CC2)cn1 [Compound 1-5, N-(1-(pyridin-3-ylmethyl)piperidin-4-yl)-5-(1-(4-(trifluoromethyl)phenyl)piperidin-4-yloxy) picolinamide]"
9,100 to 500 nM,"O=C(NC1CCN(Cc2cncnc2)CC1)c1ccc(OC2CCN(c3ccc(C(F)(F)F)cc3)CC2)cn1 [Compound 1-44, N-(1-(pyrimidin-5-ylmethyl)piperidin-4-yl)-5-(1-(4-(trifluoromethyl)phenyl)piperidin-4-yloxy)picolinamide]"

# Same assay, conditions: Table 9, compounds of Table 2
row,EC50,SMILES
1,> 100000 nM,"NC(=O)c1ccc(CN2CCC(NC(=O)c3ccc4[nH]c5c(c4c3)CN(Cc3ccc(C(N)=O)cc3)CC5)CC2)cc1 [Compound 2-49, 2-(4-carbamoylbenzyl)-N-(1-(4-carbamoylbenzyl)piperidin-4-yl)-2,3,4,5-tetrahydro-1H-pyrido[4,3-b]indole-8-carboxamide]"
2,10000 to 50000 nM,"O=C(NC1CCN(C(=O)c2ccc(F)cc2)CC1)c1ccc2[nH]c3c(c2c1)CN(c1ccc(F)cc1)CC3 [Compound 2-39, N-(1-(4-fluorobenzoyl)piperidin-4-yl)-2-(4-fluorophenyl)-2,3,4,5-tetrahydro-1H-pyrido[4,3-b]indole-8-carboxamide]"

# Same assay, conditions: Table 10, compounds of Table 3
row,EC50,SMILES
1,< 100 nM,"N#Cc1ccc(CN2CCC(NC(=O)c3cnc(OC4CCN(c5ccc(C(F)(F)F)cc5)CC4)cn3)CC2)cc1 [Compound 3-22, N-(1-(4-cyanobenzyl)piperidin-4-yl)-5-(1-(4-(trifluoromethyl)phenyl)piperidin-4-yloxy)pyrazine-2-carboxamide]"
2,100 to 1000 nM,"O=C(c1nc2ccc(OC3CCN(c4ccc(C(F)(F)F)cc4)CC3)cc2o1)N1CC2CC1CN2Cc1ccncc1 (stereo not shown) [Compound 3-8, (5-(pyridin-4-ylmethyl)-2,5-diazabicyclo[2.2.1]heptan-2-yl)(6-(1-(4-(trifluoromethyl)phenyl)piperidin-4-yloxy)benzo[d]oxazol-2-yl)methanone]"

# Same assay, conditions: Table 11, compounds of Table 4
row,EC50,SMILES
1,< 500 nM,"CC(C)S(=O)(=O)c1ccc(N2CCN(C(=O)c3ccc(C(=O)NC4CCN(Cc5ccc(OC(F)(F)F)cc5)C[C@H]4F)cn3)CC2)cc1 (stereo partly drawn) [Compound 4-11, N-((3,4-trans)-3-fluoro-1-(4-(trifluoromethoxy)benzyl)piperidin-4-yl)-6-(4-(4-(isopropylsulfonyl)phenyl)piperazine-1-carbonyl)nicotinamide]"

# Same assay, conditions: Table 12, compounds of Table 5
row,EC50,SMILES
1,< 1000 nM,"O=C(NC1CCN(Cc2ccccc2)CC1)c1ccc(OC2CCN(Cc3ccccc3)CC2)c(Cl)c1 [Compound 5-14, N-(1-benzylpiperidin-4-yl)-4-(1-benzylpiperidin-4-yloxy)-3-chlorobenzamide]"
2,< 1000 nM,"CS(=O)(=O)c1ccc(CN2CC[C@@H](Oc3cccc(C(=O)NC4CCN(Cc5ccc(C#N)cc5)CC4)c3)[C@H](F)C2)cc1 [Compound 5-128, N-(1-(4-cyanobenzyl)piperidin-4-yl)-3-((3,4-trans)-3-fluoro-1-(4-(methylsulfonyl)benzyl)piperidin-4-yloxy)benzamide]"
3,1000 to 10000 nM,"COc1ccc(CN2CCC(Oc3ccc(C(=O)N4CCN(C(=O)OC(C)(C)C)CC4)cc3)CC2)cc1 [Compound 5-96, tert-butyl 4-(4-(1-(4-methoxybenzyl)piperidin-4-yloxy)benzoyl)piperazine-1-carboxylate]"
4,1000 to 10000 nM,"CC(C)(C)OC(=O)N1CCC(Oc2ccc(C(=O)NC3CCN(Cc4ccccc4)CC3)cc2Cl)CC1 [Compound 5-90, tert-butyl 4-(4-(1-benzylpiperidin-4-ylcarbamoyl)-2-chlorophenoxy) piperidine-1-carboxylate]"
5,< 1000 nM,"COc1ccc(CN2CCC(NC(=O)c3cccc(OC4CCN(CC5CCN(c6ccccc6)CC5)CC4)c3)CC2)cc1 [Compound 5-110, N-(1-(4-methoxybenzyl)piperidin-4-yl)-3-(1-((1-phenylpiperidin-4-yl)methyl)piperidin-4-yloxy)benzamide]"
6,< 1000 nM,"O=C(NC1CCN(Cc2ccccc2)CC1)c1ccc(OC2CCN(Cc3ccncc3)CC2)c(F)c1 [Compound 5-37, N-(1-benzylpiperidin-4-yl)-3-fluoro-4-(1-(pyridin-4-ylmethyl)piperidin-4-yloxy)benzamide]"

# Same assay, conditions: Table 13, compounds of Table 6
row,EC50,SMILES
1,< 100 nM,"N#Cc1ccc(CN2CCC(NC(=O)c3cc4cc(C(=O)N5CCN(Cc6ccc(N7CCCC7)cc6)CC5)ccc4o3)CC2)cc1 [Compound 6-80, N-(1-(4-cyanobenzyl)piperidin-4-yl)-5-(4-(4-(pyrrolidin-1-yl)benzyl)piperazine-1-carbonyl)benzofuran-2-carboxamide]"
2,< 100 nM,"CS(=O)(=O)c1ccc(CN2CCN(C(=O)c3ccc4oc(C(=O)NC5CCN(Cc6cccc(OC(F)(F)C(F)F)c6)CC5)cc4c3)CC2)cc1 [Compound 6-157, 5-(4-(4-(methylsulfonyl)benzyl)piperazine-1-carbonyl)-N-(1-(3-(1,1,2,2-tetrafluoroethoxy)benzyl)piperidin-4-yl)benzofuran-2-carboxamide]"
3,1000 to 10000 nM,"N#Cc1ccc(CN2CCC(NC(=O)c3cc4cc(C(=O)N5CCN(c6cc(C(F)(F)F)cc(C(F)(F)F)c6)CC5)ccc4o3)CC2)cc1 [Compound 6-117, 5-(4-(3,5-bis(trifluoromethyl)phenyl)piperazine-1-carbonyl)-N-(1-(4-cyanobenzyl)piperidin-4-yl)benzofuran-2-carboxamide]"
4,100 to 1000 nM,"O=C(NC1CCN(Cc2ccncc2)CC1)c1cc2cc(C(=O)N3CCC(C(=O)c4ccc(F)cc4)CC3)ccc2o1 [Compound 6-15, 5-(4-(4-fluorobenzoyl)piperidine-1-carbonyl)-N-(1-(pyridin-4-ylmethyl)piperidin-4-yl)benzofuran-2-carboxamide]"
5,< 100 nM,"COc1ccc(CN2CCC(NC(=O)c3cc4cc(NC(=O)C5CCN(c6ccc(C#N)cc6)CC5)ccc4o3)CC2)cc1 [Compound 6-21, 1-(4-cyanophenyl)-N-(2-(1-(4-methoxybenzyl)piperidin-4-ylcarbamoyl)benzofuran-5-yl)piperidine-4-carboxamide]"
6,100 to 1000 nM,"N#Cc1ccc(CN2CCC(NC(=O)c3cc4cc(NC(=O)C5CCN(Cc6ccc(F)c(F)c6)CC5)ccc4o3)CC2)cc1 [Compound 6-43, N-(2-(1-(4-cyanobenzyl)piperidin-4-ylcarbamoyl)benzofuran-5-yl)-1-(3,4-difluorobenzyl)piperidine-4-carboxamide]"

# Same assay, conditions: Table 14, compounds of Table 7
row,EC50,SMILES
1,< 1000 nM,"N#Cc1ccc(CN2CCC(NC(=O)c3ccc(C(=O)N4CCC(Oc5ccc(C#N)cc5)CC4)nc3)[C@@H](F)C2)cc1 (stereo partly drawn) [Compound 7-67, N-((3,4-trans)-l-(4-cyanobenzyl)-3-fluoropiperidin-4-yl)-6-(4-(4-cyanophenoxy)piperidine-1-carbonyl)nicotinamide]"
2,< 1000 nM,"N#Cc1ccc(CN2CCC(NC(=O)c3ccc(C(=O)N4CCC(C(=O)c5ccc(-n6cccn6)cc5)CC4)nc3)[C@H](F)C2)cc1 (stereo partly drawn) [Compound 7-68, 6-(4-(4-(lH-pyrazol-1-yl)benzoyl)piperidine-1-carbonyl)-N-((3,4-trans)-1-(4-cyanobenzyl)-3-fluoropiperidin-4-yl)nicotinamide]"
3,< 1000 nM,"COc1ccc(C(=O)C2CCN(C(=O)c3ccc(C(=O)NC4CCN(Cc5ccc(C#N)c(F)c5)C[C@@H]4C)cn3)CC2)cc1 (stereo partly drawn) [Compound 7-98, N-((3,4-cis)-1-(4-cyano-3-fluorobenzyl)-3-methylpiperidin-4-yl)-6-(4-(4-methoxybenzoyl)piperidine-1-carbonyl)nicotinamide]"
4,< 1000 nM,"COc1ccc(C(=O)C2CCN(C(=O)c3ccc(C(=O)Nc4ccc(Oc5ccc(S(F)(F)(F)(F)F)cc5)nc4)nc3)CC2)cc1 [Compound 7-3, 5-(4-(4-methoxybenzoyl)piperidine-1-carbonyl)-N-(6-(4-(pentafluorosulfanyl)phenoxy)pyridin-3-yl)picolinamide]"
5,< 1000 nM,"CC(=O)c1ccc(Oc2ccc(NC(=O)c3ccc(C(=O)N4CCC(C(=O)c5ccc(OC(F)(F)F)cc5)CC4)nc3)cn2)cc1 [Compound 7-70, N-(6-(4-acetylphenoxy)pyridin-3-yl)-6-(4-(4-(trifluoromethoxy)benzoyl)piperidine-1-carbonyl) nicotinamide]"
